Results reported in patent publication US10273241B2 (President and Fellows of Harvard College, priority 2013, dated 2019).
Where two headings read alike, the source gives them in different places.

What was measured:
AML cells = assay: Comparison with cortistatin A: AML cell growth inhibition and CDK8 kinase inhibition; assay type: cell-based, human; settings: more potent than cortistatin A
Description: For all other cell lines, compounds were serially diluted in medium and dispensed in triplicate in 96-well plates (0.1% DMSO final for assay) followed by the addition of exponentially growing cells at densities ranging from 5,000 to 30,000 cells/well. Cells were also seeded into 2 additional control wells containing vehicle (0.1% DMSO). After 3 days, the number of viable cells in one of the control wells was counted by hemocytometer or MOXI Z (Orflo) and an equal volume of cells for all wells were split-back with fresh vehicle/compounds such that the resulting seeding density for the control well was 5,000-30,000 cells/well, matching the initial seeding density in that well. This procedure was repeated on day 7 and day 10. % growth was calculated as % growth=100×(total estimated cell number in well−day 0 starting cell number)/(total average vehicle estimated cell number−day 0 starting cell number). To determine the estimated cell number in each well, cells that were counted in the control well were diluted 3-fold for an 8-point dilution series, and transferred to 384-well plates in duplicate, 20 μL per well. Cells in all other wells were diluted 4-fold and transferred to 384-well plates in duplicate, 20 μL per well. 20 μL of CellTiter-Glo (Promega) was subsequently added to all wells and luminescence was detected using a SPECTRAmax M3. […]

MOLM-14 = assay: Cell growth assay, MOLM-14 AML cell line; assay type: cell-based, human
Description: (§1) For all other cell lines, compounds were serially diluted in medium and dispensed in triplicate in 96-well plates (0.1% DMSO final for assay) followed by the addition of exponentially growing cells at densities ranging from 5,000 to 30,000 cells/well. Cells were also seeded into 2 additional control wells containing vehicle (0.1% DMSO). […] To determine the estimated cell number in each well, cells that were counted in the control well were diluted 3-fold for an 8-point dilution series, and transferred to 384-well plates in duplicate, 20 μL per well. Cells in all other wells were diluted 4-fold and transferred to 384-well plates in duplicate, 20 μL per well. 20 μL of CellTiter-Glo (Promega) was subsequently added to all wells and luminescence was detected using a SPECTRAmax M3. The control well dilution series was fit to a linear regression and used as a standard for calculating the estimated cell number for each well. For days 7 and 10, total estimated cell number represents the split-adjusted theoretical cell number.

[1] = Liver microsome assay, metabolite formation; assay type: in vitro ADME, human; settings: metabolite is compound 24B
K562 = assay: Cell growth assay, K562 cell line; assay type: cell-based, human; settings: day 10, lack of activity is taken as evidence of on-target selectivity
Description: For all other cell lines, compounds were serially diluted in medium and dispensed in triplicate in 96-well plates (0.1% DMSO final for assay) followed by the addition of exponentially growing cells at densities ranging from 5,000 to 30,000 cells/well. Cells were also seeded into 2 additional control wells containing vehicle (0.1% DMSO). After 3 days, the number of viable cells in one of the control wells was counted by hemocytometer or MOXI Z (Orflo) and an equal volume of cells for all wells were split-back with fresh vehicle/compounds such that the resulting seeding density for the control well was 5,000-30,000 cells/well, matching the initial seeding density in that well. This procedure was repeated on day 7 and day 10. % growth was calculated as % growth=100×(total estimated cell number in well−day 0 starting cell number)/(total average vehicle estimated cell number−day 0 starting cell number). To determine the estimated cell number in each well, cells that were counted in the control well were diluted 3-fold for an 8-point dilution series, and transferred to 384-well plates in duplicate, 20 μL per well. Cells in all other wells were diluted 4-fold and transferred to 384-well plates in duplicate, 20 μL per well. 20 μL of CellTiter-Glo (Promega) was subsequently added to all wells and luminescence was detected using a SPECTRAmax M3. The control well dilution series was fit to a linear regression and used as a standard for calculating the estimated cell number for each well. For days 7 and 10, total estimated cell number represents the split-adjusted theoretical cell number.

MV4;11 = assay: Cell growth assay, MV4;11 AML cell line; assay type: cell-based, human
Description: as §1

[2] = Pharmacokinetic study of cortistatin A in CD-1 mice; assay type: in vivo, CD-1 mice; settings: for Cmax: mouse, in vivo, ip
[3] = Safety testing in healthy CD-1 mice; assay type: in vivo; settings: 0.16 mg kg-1 once daily for 15 days, 2 hours after last dose
Description: (§2) Efficacy studies using the MV4;11 xenograft model were performed as previously described. See, e.g., Etchin et al., Leukemia (2013) 27, 66-74. Briefly, 2 million MV4;11 mCLP cells were introduced into 7-week-old female NOD-SCID-IL2Rcγ^null (NSG) mice (The Jackson Laboratory) via tail vein injection. The tumor burden was assessed by bioluminescence imaging (BLI) using an IVIS Spectrum system (Caliper Life Sciences). […] At 30 days post-treatment start date, 3 mice per group were sacrificed and blood counts were obtained using Hemavet 950 F instrument (Drew Scientific) and spleen, femur, and peripheral blood cells were collected and analyzed by flow cytometry (LSR Fortessa, BD Biosciences). The mice and a portion of the spleen were also preserved in bouins for histopathology. Mice were sectioned, paraffin-embedded and stained with hematoxylin and eosin. Survival of the drug-treated mice was measured as the time from initiation of therapy until moribund state. Survival benefit was assessed by Kaplan-Meier analysis. […] 2 h after the last dose, the mice were sacrificed, blood counts were obtained, blood chemistry was analyzed and the mice were fixed with bouins for histopathology. […] Once tumors reached an average size of 80-120 mm^3, the mice were treated with vehicle or 0.16 mg kg^−1 daily for the duration of the study.

[4] = test system: MPLW515L-transduced bone marrow; assay: Murine model of primary myelofibrosis (MPLW515L); assay type: in vivo, mice
[5] = test system: SET-2 subcutaneous xenograft; assay: SET-2 subcutaneous xenograft model; assay type: in vivo, SCID Beige mice; settings: 0.16 mg kg-1 daily, n=10, P<0.001
Description: as §2

Wnt/beta-catenin pathway = assay: Wnt/beta-catenin reporter assay (SuperTOPflash luciferase, HEK293STF); assay type: cell-based; settings: 24 hour treatment with Wnt3A or 10 μM azakenpaullone; read-out: IC50, inhibition of luciferase expression
Description: Exponentially growing HEK293STF were plated in triplicate in 96-well plates at a density of 5,000 cells/well in 75 μL. […] Additional triplicate control wells on each plate had media without cells or cells without azakenpaullone. For experiments with Wnt3A conditioned media, after 24 h, compounds were serially diluted in Wnt3A conditioned media as 1× solutions (0.1% DMSO final). Old media was removed from the cells and replaced with the compound/Wnt3A-media. Additional triplicate control wells on each plate had media without cells or cells that were treated with L-conditioned media (no Wnt3A). After 24 h, the CellTiter-Fluor and Steady-Glo assays (Promega) were subsequently performed in series to determine viability and luminescence, respectively, in each well (measurements made on a SPECTRAmax M3, Molecular Devices). Graphs were made in Prism 5 (GraphPad Software, Inc.) with nonlinear regression fit to a sigmoidal dose-response curve (variable slope).

[6] = test system: STAT1 pS727 (CDK8 module kinase activity) in HepG2 cells; assay: IFN-γ-stimulated STAT1 S727 phosphorylation, western blot; assay type: cell-based, human; settings: 1 hour compound then 1 hour IFN-γ; STAT1 pY701 and total STAT1 unaltered
Description: CDK8 has been reported to […] interferon gamma-stimulated phosphorylation of STAT1 S727. See, e.g., Bancerek et al., Immunity (2013) 38:250-262. […] The cells were lysed and probed by western blot.
(§3) For STAT1 studies, MOLM-14 cells were treated with vehicle (0.1% DMSO) or compound for 1 h followed by the addition of IFNγ (Life Technologies, PHC4031) for 1 h. Cells were then collected, washed twice with cold PBS and snap frozen in liquid nitrogen. For all Western blotting, whole-cell lysates were prepared in RPA buffer (Sigma-Aldrich, R0278) with phosphatase and protease inhibitor additives (Sigma-Aldrich, P8340, P0044, P5762) and protein concentration was determined by BCA assay (Thermo Scientific, 23225). RIPA extracts were resolved by denaturing polyacrylamide gel electrophoresis (Life Technologies, NuPAGE) and transferred to PVDF membrane (Millipore) using the Mini Trans-Blot system (BioRad). The membranes were probed as recommended by the antibody manufacturers and proteins detected by chemiluminescence using horseradish peroxidase-conjugated secondary antibodies. For SMAD2/3 studies, HaCaT cells were treated as described for STAT1 with the addition of TGFβ1 (R&D Systems) in place of IFNγ.

BCL2L11 expression = assay: BCL2L11 mRNA levels in MV4;11 and MOLM-14 cells; assay type: cell-based, human; settings: 24 h treatment
[7] = test system: SMAD2/3 phosphorylation in HaCat cells; assay: TGF-beta-stimulated SMAD2/3 phosphorylation, western blot; assay type: cell-based; settings: 1 hour compound then 1 hour TGF-beta
Description: as §3

MV4;11 AML cells = assay: MV4;11 disseminated leukemia mouse model of AML; assay type: in vivo, NOD-SCID-IL2Rcγnull (NSG) mice; settings: 0.05 and 0.16 mg/kg once daily for 15 days
Description: as §2

[8] = Human hepatocyte stability assay; assay type: in vitro ADME; settings: 1 μM
Description: Test compounds were incubated in duplicate with cryopreserved hepatocytes at 37° C. The cells were thawed; viable cells counted, and equilibrated according to the supplier's directions. After 30 min equilibration at 37° C. with gentle agitation, the test compounds were added into the cells to give the desired final concentration of 1 μM. The cell suspension was incubated at 37° C. as above. At the indicated times, samples were removed and mixed with an equal volume of ice-cold Stop Solution (acetonitrile containing internal standards). Stopped reactions were incubated at least ten minutes on ice, and an additional volume of water was added. The samples were centrifuged to remove precipitated protein, and the supernatants were analyzed by LC/MS/MS to quantitate the remaining parent. Data were converted to % remaining by dividing by the time zero concentration value. Data were fit to a first-order decay model to determine half-life. From a plot of log (ln) peak area against time, the slope of the line was determined. Subsequently, half-life and intrinsic clearance were calculated using the equations below: Elimination rate constant (k)=(−slope); Half-life (T1/2) min=0.693/k; Intrinsic Clearance (CLint) (ml/min/million cells)=(V×0.693)/T1/2; V=incubation volume ml/number of cells.

[9] = Liver microsome metabolic stability assay; assay type: in vitro ADME; settings: 1 micromolar, 0.5 mg/ml microsomal protein
Description: Test compounds were incubated at 37° C. with liver microsomes pooled from multiple donors at 1 micromolar in the presence of a NADPII regenerating system at 0.5 mg/ml microsomal protein. At 0, 5, 10, 20, 30, and 60 minutes, samples were removed, and mixed with cold acetonitrile containing an internal standard. After protein separation, samples were analyzed by LC/MS/MS for disappearance of the test compound using the ratio of peak area of analyte to internal standard. From the values, the microsome clearance was calculated. Species used were human, Sprague Dawley rat, beagle dog, and CD-1 mouse.

[10] = Homo sapiens, MOLM-14, 240 h, day 10, cells passaged, fresh compound added on days 3 and 7, read-out: MOL M14 G150 day 10
[11] = Homo sapiens, MV4-11, 240 h, day 10, cells passaged, fresh compound added on days 3 and 7, read-out: MV 4;11 GI50 day 10

What does the source list for `CN(C)[C@H]1CCC2=CC3=CC[C@]4(C)[C@@H](c5ccc6ccncc6c5)CC[C@H]4C34CC[C@]2(C1)O4` [14B, β-dimethylamine]?
potency relative to cortistatin A in cell growth inhibition and in CDK8 kinase inhibition (AML cells): approximately 2 fold; GI50 (MOLM-14; [10]): 3 nM; GI50 (MOLM-14; Homo sapiens, MOLM-14, day 7, fresh compound added on day 3, read-out: MOL M14 GI50 day 7): 7 nM; metabolism in human liver microsomes [1]: undergoes N-monodemethylation at C3; GI50 (K562; Homo sapiens, K562, 240 h): > 1000 nM; GI50 (MV4;11; [11]): 4 nM; GI50 (MV4;11; Homo sapiens, MV4-11, day 7, fresh compound added on day 3, read-out: MV4;11 GI50 day 7): 8 nM

With cortistatin A [CA] as the compound, how does the “calculated T1/2” value ([2]; 10 mg/kg IP in 10% DMSO/phosphate buffered saline pH6, male CD-1 mice) read?
Its value is 6.06 h.

And the Cmax ([2]; 1 mg/kg)?
The Cmax was 0.762 µM.

What about the Cmax ([2]; 10 mg/kg, pH 6) of the same compound?
Its Cmax is 1.4 µM.

And the “calculated T1/2 between 0.5-2 h” value ([2]; single IP injection 1 mg/kg in 20% HPCD, male CD-1 mice)?
The value was 0.55 h.

What about the “complete blood count (CBC) vs vehicle” value [3] of the same compound?
Its value is “no significant differences”.

What about the GI50 (MOLM-14; day 7, fresh compound added on day 3, read-out: MOL M14 GI50 day 7) of the same compound?
The GI50 was 9 nM.

What about the GI50 (MOLM-14; day 10, cells passaged, fresh compound added on days 3 and 7, read-out: MOL M14 G150 day 10) of the same compound?
Its GI50 is 5 nM.

What about the spleen weights ([4]; 0.31 mg/kg and 0.62 mg/kg i.p. once daily, after 6 doses) of the same compound?
The spleen weights was “significant reduction”.

What about the “allele burden (GFP percentage in peripheral blood)” value ([4]; after 4 doses of daily treatment) of the same compound?
Its value is “significant reduction”.

And the tumor growth inhibition [5]?
The tumor growth inhibition was 68%.

And the IC50 (Wnt/beta-catenin pathway)?
The IC50 was 1.5 nM.

What about the “inhibition of IFN-γ-stimulated increase in STAT1 pS727” value [6] of the same compound?
Its value is “potently inhibited”.

And the “mRNA levels of BCL2L11” value (BCL2L11 expression)?
The value was “dose-dependently increases”.

What about the GI50 (K562) of the same compound?
Its GI50 is > 1000 nM.

And the “TGF-beta-stimulated SMAD2/3 phosphorylation” value [7]?
The value was “dose-dependently inhibited”.

And the “efficacy (bioluminescence, survival, spleen and bone marrow burden)” value (MV4;11 AML cells)?
The value was “effective”.

And the mean body weight (MV4;11 AML cells; n=11)?
Its mean body weight is “did not decrease”.

What about the GI50 (MV4;11; day 7, fresh compound added on day 3, read-out: MV4;11 GI50 day 7) of the same compound?
The GI50 was 9 nM.

What about the GI50 (MV4;11; day 10, cells passaged, fresh compound added on days 3 and 7, read-out: MV 4;11 GI50 day 10) of the same compound?
The GI50 was 4 nM.

Which GI50 (MOLM-14; [10]) does the source give for `C[C@]12CC=C3C=C4CC[C@H]([N+](C)(C)[O-])CC45CC[C@]3(O5)[C@@H]1CC[C@@H]2c1ccc2ccncc2c1` [14BNO, 14B-N-Oxide] here?
Its GI50 is 2 nM.

What about the “half-life and clearance rate in hepatocytes” value [8] of the same compound?
The value was “acceptable half-life and clearance rate”.

What about the “metabolic stability in liver microsomes compared with 14B” value [9] of the same compound?
The value was “increased stability”.

What about the “metabolic stability in liver microsomes compared with 14B” value ([9]; listed as N-oxide of compound 14B) of the same compound?
Its value is “improved stability”.

And the GI50 (K562; Homo sapiens, K562, 240 h)?
The GI50 was > 1000 nM.

And the GI50 (MV4;11; [11])?
Its GI50 is 1 nM.
